Key:
Type in all cases: biochemical
Settings in all cases: 10 μM, ATP near Km
Abl2 = molecular target: T1, Abl2 (Homo sapiens, UniProt P42684); assay: KinaseProfiler Abl2
T1 construct: purchased Millipore (KinaseProfiler service)
Text: (§1) The compound was run in duplicate at a concentration of ATP near the Km for each individual kinase according to Millipore's specifications.

Abl-P = molecular target: T2, Abl-P (Homo sapiens, UniProt P00519); assay: KinaseProfiler Abl-P
T2 construct: purchased Millipore (KinaseProfiler service)
Text: as §1

AMPK(A1/B1/G1) = molecular target: T3, AMPK(A1/B1/G1) (Homo sapiens, UniProt Q13131); assay: KinaseProfiler AMPK(A1/B1/G1)
T3 construct: purchased Millipore (KinaseProfiler service)
Text: as §1

Bmx = molecular target: T4, Bmx (Homo sapiens, UniProt P51813); assay: KinaseProfiler Bmx
T4 construct: purchased Millipore (KinaseProfiler service)
Text: as §1

CAMK2d = molecular target: T5, CAMK2d (Homo sapiens, UniProt Q13557); assay: KinaseProfiler CAMK2d
T5 construct: purchased Millipore (KinaseProfiler service)
Text: as §1

CDK3/cyclinE = molecular target: T6, CDK3/cyclinE (Homo sapiens, UniProt Q00526); assay: KinaseProfiler CDK3/cyclinE
T6 construct: purchased Millipore, Inc. (KinaseProfiler service)
Text: as §1

CDK7/cyclinH/MAT1 = molecular target: T7, CDK7/cyclinH/MAT1 (Homo sapiens, UniProt P50613); assay: KinaseProfiler CDK7/cyclinH/MAT1
T7 construct: purchased Millipore, Inc. (KinaseProfiler service)
Text: as §1

CK2alpha2 = molecular target: T8, CK2alpha2 (Homo sapiens, UniProt P19784); assay: KinaseProfiler CK2alpha2
T8 construct: purchased Millipore, Inc. (KinaseProfiler service)
Text: as §1

DYRK2 = molecular target: T9, DYRK2 (Homo sapiens, UniProt Q92630); assay: KinaseProfiler DYRK2
T9 construct: purchased Millipore, Inc. (KinaseProfiler service)
Text: as §1

EphA4 = molecular target: T10, EphA4 (Homo sapiens, UniProt P54764); assay: KinaseProfiler EphA4
T10 construct: purchased Millipore, Inc. (KinaseProfiler service)
Text: as §1

EphA7 = molecular target: T11, EphA7 (Homo sapiens, UniProt Q15375); assay: KinaseProfiler EphA7
T11 construct: purchased Millipore, Inc. (KinaseProfiler service)
Text: as §1

EphB1 = molecular target: T12, EphB1 (Homo sapiens, UniProt P54762); assay: KinaseProfiler EphB1
T12 construct: purchased Millipore, Inc. (KinaseProfiler service)
Text: as §1

ERK1 = molecular target: T13, ERK1 (Homo sapiens, UniProt P27361); assay: KinaseProfiler ERK1
T13 construct: purchased Millipore, Inc. (KinaseProfiler service)
T13 sequence (P27361 whole entry): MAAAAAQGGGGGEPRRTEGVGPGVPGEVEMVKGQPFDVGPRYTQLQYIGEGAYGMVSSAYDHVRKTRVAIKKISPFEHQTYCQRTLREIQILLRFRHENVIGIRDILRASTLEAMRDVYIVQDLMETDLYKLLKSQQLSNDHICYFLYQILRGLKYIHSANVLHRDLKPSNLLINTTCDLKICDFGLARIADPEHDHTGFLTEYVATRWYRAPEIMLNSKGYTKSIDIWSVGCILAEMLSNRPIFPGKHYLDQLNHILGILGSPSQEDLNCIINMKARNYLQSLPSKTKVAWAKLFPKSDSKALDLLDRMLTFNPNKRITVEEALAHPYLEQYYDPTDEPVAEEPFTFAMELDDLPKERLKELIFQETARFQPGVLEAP
Text: as §1

Fes = molecular target: T14, Fes (Homo sapiens, UniProt P07332); assay: KinaseProfiler Fes
T14 construct: purchased Millipore, Inc. (KinaseProfiler service)
T14 sequence (P07332 whole entry): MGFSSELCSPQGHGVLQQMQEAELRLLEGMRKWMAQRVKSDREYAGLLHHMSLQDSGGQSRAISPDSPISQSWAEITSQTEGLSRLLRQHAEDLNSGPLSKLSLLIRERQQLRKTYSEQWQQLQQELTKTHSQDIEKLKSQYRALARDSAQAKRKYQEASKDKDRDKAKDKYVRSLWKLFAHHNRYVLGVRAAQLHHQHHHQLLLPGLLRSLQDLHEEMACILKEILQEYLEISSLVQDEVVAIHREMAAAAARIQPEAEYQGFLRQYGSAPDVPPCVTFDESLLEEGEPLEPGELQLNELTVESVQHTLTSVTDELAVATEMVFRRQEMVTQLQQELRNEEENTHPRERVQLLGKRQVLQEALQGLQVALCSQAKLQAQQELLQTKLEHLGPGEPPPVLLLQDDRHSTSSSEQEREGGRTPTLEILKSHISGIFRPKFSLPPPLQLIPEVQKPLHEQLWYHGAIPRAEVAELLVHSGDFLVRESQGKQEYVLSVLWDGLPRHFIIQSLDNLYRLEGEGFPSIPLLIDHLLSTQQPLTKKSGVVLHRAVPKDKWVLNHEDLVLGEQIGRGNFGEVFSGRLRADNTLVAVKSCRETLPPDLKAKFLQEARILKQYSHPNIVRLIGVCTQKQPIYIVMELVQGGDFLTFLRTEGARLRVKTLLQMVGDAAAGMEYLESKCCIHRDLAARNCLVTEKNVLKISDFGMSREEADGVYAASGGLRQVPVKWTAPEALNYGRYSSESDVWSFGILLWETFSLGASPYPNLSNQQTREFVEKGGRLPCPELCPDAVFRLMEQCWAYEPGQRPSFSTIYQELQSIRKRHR
Text: as §1

FGFR2 = molecular target: T15, FGFR2 (Homo sapiens, UniProt P21802); assay: KinaseProfiler FGFR2
T15 construct: purchased Millipore, Inc. (KinaseProfiler service)
Text: as §1

GRK6 = molecular target: T16, GRK6 (Homo sapiens, UniProt P43250); assay: KinaseProfiler GRK6
T16 construct: purchased Millipore, Inc. (KinaseProfiler service)
Text: as §1

HIPK1 = molecular target: T17, HIPK1 (Homo sapiens, UniProt Q86Z02); assay: KinaseProfiler HIPK1
T17 construct: purchased Millipore, Inc. (KinaseProfiler service)
Text: as §1

IKKalpha = molecular target: T18, IKKalpha (Homo sapiens, UniProt O15111); assay: KinaseProfiler IKKalpha
T18 construct: purchased Millipore, Inc. (KinaseProfiler service)
Text: as §1

IRAK1 = molecular target: T19, IRAK1 (Homo sapiens, UniProt P51617); assay: KinaseProfiler IRAK1
T19 construct: purchased Millipore, Inc. (KinaseProfiler service)
T19 sequence (P51617 whole entry): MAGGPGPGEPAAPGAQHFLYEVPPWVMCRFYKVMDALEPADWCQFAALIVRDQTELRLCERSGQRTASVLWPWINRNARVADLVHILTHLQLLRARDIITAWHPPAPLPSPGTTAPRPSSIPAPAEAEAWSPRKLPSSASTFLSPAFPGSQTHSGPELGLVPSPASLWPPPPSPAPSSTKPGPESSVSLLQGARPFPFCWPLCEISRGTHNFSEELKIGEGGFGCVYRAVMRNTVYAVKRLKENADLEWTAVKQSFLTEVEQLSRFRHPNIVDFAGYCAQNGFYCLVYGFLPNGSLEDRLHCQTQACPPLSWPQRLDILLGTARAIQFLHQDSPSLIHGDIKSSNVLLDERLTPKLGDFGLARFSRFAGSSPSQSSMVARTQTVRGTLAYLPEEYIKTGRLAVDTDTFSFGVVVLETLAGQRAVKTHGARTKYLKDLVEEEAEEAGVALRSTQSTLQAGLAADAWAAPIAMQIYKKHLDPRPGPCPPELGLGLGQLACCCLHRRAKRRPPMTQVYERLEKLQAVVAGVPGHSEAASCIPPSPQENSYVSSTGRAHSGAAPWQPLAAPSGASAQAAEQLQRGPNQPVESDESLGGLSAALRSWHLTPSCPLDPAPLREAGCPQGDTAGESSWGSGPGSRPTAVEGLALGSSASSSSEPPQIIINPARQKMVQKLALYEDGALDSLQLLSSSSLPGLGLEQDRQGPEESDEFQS
Text: as §1

Lck = molecular target: T20, Lck (Homo sapiens, UniProt P06239); assay: KinaseProfiler Lck
T20 construct: purchased Millipore, Inc. (KinaseProfiler service)
Text: as §1

MAP4K2 = molecular target: T21, MAP4K2 (Homo sapiens, UniProt Q12851); assay: KinaseProfiler MAP4K2
T21 construct: purchased Millipore, Inc. (KinaseProfiler service)
Text: as §1

MAPKAP-K3 = molecular target: T22, MAPKAP-K3 (Homo sapiens, UniProt Q16644); assay: KinaseProfiler MAPKAP-K3
T22 construct: purchased Millipore, Inc. (KinaseProfiler service)
T22 sequence (Q16644 whole entry): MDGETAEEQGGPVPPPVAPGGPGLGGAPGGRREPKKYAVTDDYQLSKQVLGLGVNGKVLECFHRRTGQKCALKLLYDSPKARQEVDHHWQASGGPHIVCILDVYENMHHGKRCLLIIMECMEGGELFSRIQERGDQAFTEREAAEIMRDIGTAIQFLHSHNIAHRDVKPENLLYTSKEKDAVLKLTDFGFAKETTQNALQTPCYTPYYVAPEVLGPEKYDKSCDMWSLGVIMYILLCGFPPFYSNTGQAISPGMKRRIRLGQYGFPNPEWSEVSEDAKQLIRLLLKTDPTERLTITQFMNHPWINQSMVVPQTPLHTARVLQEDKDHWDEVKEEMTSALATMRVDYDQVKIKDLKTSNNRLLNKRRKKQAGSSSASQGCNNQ
Text: as §1

MARK2 = molecular target: T23, MARK2 (Homo sapiens, UniProt Q7KZI7); assay: KinaseProfiler MARK2
T23 construct: purchased Millipore, Inc. (KinaseProfiler service)
Text: as §1

Met = molecular target: T24, Met (Homo sapiens, UniProt P08581); assay: KinaseProfiler Met
T24 construct: purchased Millipore, Inc. (KinaseProfiler service)
Text: as §1

MRCKalpha = molecular target: T25, MRCKalpha (Homo sapiens, UniProt Q5VT25); assay: KinaseProfiler MRCKalpha
T25 construct: purchased Millipore, Inc. (KinaseProfiler service)
Text: as §1

MRCKbeta = molecular target: T26, MRCKbeta (Homo sapiens, UniProt Q9Y5S2); assay: KinaseProfiler MRCKbeta
T26 construct: purchased Millipore, Inc. (KinaseProfiler service)
Text: as §1

MSK1 = molecular target: T27, MSK1 (Homo sapiens, UniProt O75582); assay: KinaseProfiler MSK1
T27 construct: purchased Millipore, Inc. (KinaseProfiler service)
Text: as §1

mTOR = molecular target: T28, mTOR (Homo sapiens, UniProt P42345); assay: KinaseProfiler mTOR
T28 construct: purchased Millipore, Inc. (KinaseProfiler service)
Text: as §1

MuSK = molecular target: T29, MuSK (Homo sapiens, UniProt O15146); assay: KinaseProfiler MuSK
T29 construct: purchased Millipore, Inc. (KinaseProfiler service)
Text: as §1

NEK11 = molecular target: T30, NEK11 (Homo sapiens, UniProt Q8NG66); assay: KinaseProfiler NEK11
T30 construct: purchased Millipore, Inc. (KinaseProfiler service)
Text: as §1

p38delta = molecular target: T31, p38delta (Homo sapiens, UniProt O15264); assay: KinaseProfiler p38delta
T31 construct: purchased Millipore, Inc. (KinaseProfiler service)
Text: as §1

PDGFRbeta = molecular target: T32, PDGFRbeta (Homo sapiens, UniProt P09619); assay: KinaseProfiler PDGFRbeta
T32 construct: purchased Millipore, Inc. (KinaseProfiler service)
Text: as §1

Pim-1 = molecular target: T33, Pim-1 (Homo sapiens, UniProt P11309); assay: KinaseProfiler Pim-1
T33 construct: purchased Millipore, Inc. (KinaseProfiler service)
Text: as §1

Pim-3 = molecular target: T34, Pim-3 (Homo sapiens, UniProt Q86V86); assay: KinaseProfiler Pim-3
T34 construct: purchased Millipore, Inc. (KinaseProfiler service)
Text: as §1

PKCtheta = molecular target: T35, PKCtheta (Homo sapiens, UniProt Q04759); assay: KinaseProfiler PKCtheta
T35 construct: purchased Millipore, Inc. (KinaseProfiler service)
T35 sequence (Q04759 whole entry): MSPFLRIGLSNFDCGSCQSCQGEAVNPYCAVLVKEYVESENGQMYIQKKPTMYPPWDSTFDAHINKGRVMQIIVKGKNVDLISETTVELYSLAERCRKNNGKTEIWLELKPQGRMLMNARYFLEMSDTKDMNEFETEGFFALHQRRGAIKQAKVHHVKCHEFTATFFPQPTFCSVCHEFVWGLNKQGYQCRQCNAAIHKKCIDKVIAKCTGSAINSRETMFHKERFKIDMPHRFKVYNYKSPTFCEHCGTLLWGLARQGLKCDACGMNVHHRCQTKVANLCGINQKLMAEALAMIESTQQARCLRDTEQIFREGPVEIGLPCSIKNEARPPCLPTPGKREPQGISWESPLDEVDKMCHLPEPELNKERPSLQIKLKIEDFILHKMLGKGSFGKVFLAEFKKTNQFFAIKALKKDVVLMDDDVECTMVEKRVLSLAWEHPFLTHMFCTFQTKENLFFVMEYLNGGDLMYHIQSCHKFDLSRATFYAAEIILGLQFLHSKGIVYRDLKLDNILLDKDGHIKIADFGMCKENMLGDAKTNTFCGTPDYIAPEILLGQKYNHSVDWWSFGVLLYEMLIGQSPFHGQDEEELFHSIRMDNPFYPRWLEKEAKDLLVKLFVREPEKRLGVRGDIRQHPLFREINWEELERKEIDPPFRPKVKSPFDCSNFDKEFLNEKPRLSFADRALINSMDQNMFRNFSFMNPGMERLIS
Text: as §1

PKCzeta = molecular target: T36, PKCzeta (Homo sapiens, UniProt Q05513); assay: KinaseProfiler PKCzeta
T36 construct: purchased Millipore, Inc. (KinaseProfiler service)
Text: as §1

PKD2 = molecular target: T37, PKD2 (Homo sapiens, UniProt Q9BZL6); assay: KinaseProfiler PKD2
T37 construct: purchased Millipore, Inc. (KinaseProfiler service)
Text: as §1

Plk1 = molecular target: T38, Plk1 (Homo sapiens, UniProt P53350); assay: KinaseProfiler Plk1
T38 construct: purchased Millipore, Inc. (KinaseProfiler service)
Text: as §1

Ret = molecular target: T39, Ret (Homo sapiens, UniProt P07949); assay: KinaseProfiler Ret
T39 construct: purchased Millipore, Inc. (KinaseProfiler service)
Text: as §1

Rsk2 = molecular target: T40, Rsk2 (Homo sapiens, UniProt P51812); assay: KinaseProfiler Rsk2
T40 construct: purchased Millipore, Inc. (KinaseProfiler service)
Text: as §1

Rsk4 = molecular target: T41, Rsk4 (Homo sapiens, UniProt Q9UK32); assay: KinaseProfiler Rsk4
T41 construct: purchased Millipore, Inc. (KinaseProfiler service)
Text: as §1

SGK1 = molecular target: T42, SGK1 (Homo sapiens, UniProt O00141); assay: KinaseProfiler SGK1
T42 construct: purchased Millipore, Inc. (KinaseProfiler service)
Text: as §1

VRK2 = molecular target: T43, VRK2 (Homo sapiens, UniProt Q86Y07); assay: KinaseProfiler VRK2
T43 construct: purchased Millipore, Inc. (KinaseProfiler service)
T43 sequence (Q86Y07 whole entry): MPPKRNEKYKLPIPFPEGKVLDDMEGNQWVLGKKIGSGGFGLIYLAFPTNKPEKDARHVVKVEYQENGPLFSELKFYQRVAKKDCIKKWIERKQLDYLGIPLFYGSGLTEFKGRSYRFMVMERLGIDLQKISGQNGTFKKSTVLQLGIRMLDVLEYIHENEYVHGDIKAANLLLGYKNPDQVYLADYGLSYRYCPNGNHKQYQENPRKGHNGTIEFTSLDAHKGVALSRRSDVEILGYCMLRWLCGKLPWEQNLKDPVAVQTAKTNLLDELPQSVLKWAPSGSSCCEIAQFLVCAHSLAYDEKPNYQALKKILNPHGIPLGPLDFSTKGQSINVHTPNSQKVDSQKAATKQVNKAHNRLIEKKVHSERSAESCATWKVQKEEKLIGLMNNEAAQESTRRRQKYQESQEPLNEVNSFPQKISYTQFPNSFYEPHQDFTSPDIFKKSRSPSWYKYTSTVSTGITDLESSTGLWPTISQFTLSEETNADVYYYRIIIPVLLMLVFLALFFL
Text: as §1

T1 sequence (P42684 whole entry): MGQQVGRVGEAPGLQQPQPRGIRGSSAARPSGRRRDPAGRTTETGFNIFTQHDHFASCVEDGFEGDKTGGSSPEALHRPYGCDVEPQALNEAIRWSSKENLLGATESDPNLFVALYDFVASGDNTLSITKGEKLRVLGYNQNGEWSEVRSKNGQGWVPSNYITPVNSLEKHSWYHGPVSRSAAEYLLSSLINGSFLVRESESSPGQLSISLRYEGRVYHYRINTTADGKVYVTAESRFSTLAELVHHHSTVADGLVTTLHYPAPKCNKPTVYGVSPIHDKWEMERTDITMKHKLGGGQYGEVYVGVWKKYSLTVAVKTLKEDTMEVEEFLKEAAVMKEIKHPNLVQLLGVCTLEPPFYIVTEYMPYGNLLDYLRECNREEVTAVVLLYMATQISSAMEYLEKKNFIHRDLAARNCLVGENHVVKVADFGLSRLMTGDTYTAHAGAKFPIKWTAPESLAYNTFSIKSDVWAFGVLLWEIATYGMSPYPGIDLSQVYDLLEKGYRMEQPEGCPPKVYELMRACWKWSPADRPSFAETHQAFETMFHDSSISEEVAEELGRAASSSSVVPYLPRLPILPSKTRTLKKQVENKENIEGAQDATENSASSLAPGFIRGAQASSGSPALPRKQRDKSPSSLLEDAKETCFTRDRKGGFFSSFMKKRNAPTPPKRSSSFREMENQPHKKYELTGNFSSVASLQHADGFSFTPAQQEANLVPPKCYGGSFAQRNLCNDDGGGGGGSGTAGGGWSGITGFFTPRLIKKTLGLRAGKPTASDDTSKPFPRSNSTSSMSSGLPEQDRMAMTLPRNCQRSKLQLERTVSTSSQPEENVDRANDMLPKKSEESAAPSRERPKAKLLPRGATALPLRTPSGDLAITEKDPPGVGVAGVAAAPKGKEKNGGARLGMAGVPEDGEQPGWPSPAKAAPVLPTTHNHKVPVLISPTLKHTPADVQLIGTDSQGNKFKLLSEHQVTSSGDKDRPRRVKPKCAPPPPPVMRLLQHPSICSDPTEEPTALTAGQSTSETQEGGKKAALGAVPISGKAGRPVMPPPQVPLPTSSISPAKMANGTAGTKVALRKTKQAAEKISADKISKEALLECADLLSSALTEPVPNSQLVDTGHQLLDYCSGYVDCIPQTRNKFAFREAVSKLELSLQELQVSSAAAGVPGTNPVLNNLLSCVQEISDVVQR

Cc1c(-c2cnn(C)c2)nn(-c2ccccc2)c1NC(=O)Nc1cc(C(F)(F)F)nn1-c1ccccc1 [Example 3, 1-(1′,4-dimethyl-1-phenyl-1H,1′H-[3,4′-bipyrazol]-5-yl)-3-(1-phenyl-3-(trifluoromethyl)-1H-pyrazol-5-yl)urea]
Avg POC (Abl2): 148.5 POC | Avg POC (Abl-P): 154.5 POC | Avg POC (AMPK(A1/B1/G1)): 149.5 POC | Avg POC (Bmx): 114.5 POC | Avg POC (CAMK2d): 131 POC | Avg POC (CDK3/cyclinE): 103 POC | Avg POC (CDK7/cyclinH/MAT1): 120.5 POC | Avg POC (CK2alpha2): 102.5 POC | Avg POC (DYRK2): 92.5 POC | Avg POC (EphA4): 106.5 POC | Avg POC (EphA7): 91 POC | Avg POC (EphB1): 122 POC | Avg POC (ERK1): 111.5 POC | Avg POC (Fes): 123 POC | Avg POC (FGFR2): 110 POC | Avg POC (GRK6): 105 POC | Avg POC (HIPK1): 115.5 POC | Avg POC (IKKalpha): 127 POC | Avg POC (IRAK1): 102.5 POC | Avg POC (Lck): 93 POC | Avg POC (MAP4K2): 113 POC | Avg POC (MAPKAP-K3): 128.5 POC | Avg POC (MARK2): 106.5 POC | Avg POC (Met): 129 POC | Avg POC (MRCKalpha): 172.5 POC | Avg POC (MRCKbeta): 121.5 POC | Avg POC (MSK1): 152.5 POC | Avg POC (mTOR): 78.5 POC | Avg POC (MuSK): 82.5 POC | Avg POC (NEK11): 110 POC | Avg POC (p38delta): 92.5 POC | Avg POC (PDGFRbeta): 175 POC | Avg POC (Pim-1): 119.5 POC | Avg POC (Pim-3): 107.5 POC | Avg POC (PKCtheta): 113.5 POC | Avg POC (PKCzeta): 103 POC | Avg POC (PKD2): 115 POC | Avg POC (Plk1): 95 POC | Avg POC (Ret): 89.5 POC | Avg POC (Rsk2): 134 POC | Avg POC (Rsk4): 99 POC | Avg POC (SGK1): 276.5 POC | Avg POC (VRK2): 96.5 POC
